5 compounds from patent US7439380B2, “Diarylbutadiene-substituted diorganopolysiloxanes and photoprotective compositions comprised thereof” (L'Oreal, priority 2003, dated 2008) can be followed below.

The data set can be described thus: UV absorption spectrum in ethanol. As to conditions: for UV E1% / UV εmax: at λmax. The class given is physicochemical.

The structures appear in SMILES notation.

Turning to `CCOC(=O)/C(=C/C=C(c1ccccc1)c1ccccc1)C(=O)OCC(C)C[Si](C)(O[Si](C)(C)C)O[Si](C)(C)C` (stereo not drawn) [Example 1, monoethyl mono-3-[1,3,3,3-tetramethyl-1-[(trimethylsilyl)oxy]disiloxanyl]-2-methylpropyl 2-(3,3-diphenylprop-2-enylene)malonate], the “UV λmax” value is on record as 333 nm, the “UV E1%” value came to 660 and the “UV εmax” value is listed as 39 530.
Consider `C[Si](C)(C)O[Si](C)(CCCOC(=O)/C(C#N)=C\C=C(c1ccccc1)c1ccccc1)O[Si](C)(C)C` [Example 3, 3-[1,3,3,3-tetramethyl-1-[(trimethylsilyl)oxy]disiloxanyl]propyl 2-cyano-5,5-diphenylpenta-2,4-dienoate], for which the “UV λmax” value came to 358 nm, the “UV E1%” value worked out at 574 and the “UV εmax” value is given as 30 874.
In the case of `C[Si](C)(C)O[Si](C)(CCCNC(=O)/C(C#N)=C/C=C(c1ccccc1)c1ccccc1)O[Si](C)(C)C` [Example 5, N-[3-[1,3,3,3-tetramethyl-1-[(trimethylsilyl)oxy]disiloxanyl]propyl]-2-cyano-5,6-diphenylpenta-2,4-dienamide], the “UV λmax” value was 351 nm, the “UV E1%” value is 515 and the “UV εmax” value is reported as 27 650.
The matching figures for `CC(COC(=O)C(=CC=C(c1ccccc1)c1ccccc1)C(=O)OCC(C)C[Si](C)(O[Si](C)(C)C)O[Si](C)(C)C)C[Si](C)(O[Si](C)(C)C)O[Si](C)(C)C` (stereo not drawn) [Example 6]: 330 nm, 346 and 28 650.
On to `CCOC(=O)/C(=C\C=C(c1ccccc1)c1ccccc1)C(=O)NCCC[Si](C)(O[Si](C)(C)C)O[Si](C)(C)C` [Example 7, ethyl 4,4-diphenyl-1,3-diene-N-[3-[1,3,3,3-tetramethyl-1-[(trimethylsilyl)oxy]disiloxanyl]propyl]-2-(4,4-diphenylprop-2-ethylene)malonamide], for which the “UV λmax” value came out at 335 nm, the “UV E1%” value is given as 542 and the “UV εmax” value was 31 650.
